Source: patent US11673855B2, “Voltage gated sodium channel imaging agents” (The General Hospital Corporation, priority 2017, dated 2023)
Entries after “also recorded” stand apart in the source; their conditions may differ.

Columns and labels:
SCN5A [1] = molecular target: T1, SCN5A (Rattus norvegicus, UniProt P15389); test: Ex vivo F-18 autoradiography of rat myocardium; assay type: binding
T1 construct: Heart sections ([…] thickness) were prepared using a −20° C. cryostat and thaw-mounted onto gelatin-coated slides; from tissue; host or cells: rat heart (myocardium) cryosections
T1 sequence (P15389 whole entry): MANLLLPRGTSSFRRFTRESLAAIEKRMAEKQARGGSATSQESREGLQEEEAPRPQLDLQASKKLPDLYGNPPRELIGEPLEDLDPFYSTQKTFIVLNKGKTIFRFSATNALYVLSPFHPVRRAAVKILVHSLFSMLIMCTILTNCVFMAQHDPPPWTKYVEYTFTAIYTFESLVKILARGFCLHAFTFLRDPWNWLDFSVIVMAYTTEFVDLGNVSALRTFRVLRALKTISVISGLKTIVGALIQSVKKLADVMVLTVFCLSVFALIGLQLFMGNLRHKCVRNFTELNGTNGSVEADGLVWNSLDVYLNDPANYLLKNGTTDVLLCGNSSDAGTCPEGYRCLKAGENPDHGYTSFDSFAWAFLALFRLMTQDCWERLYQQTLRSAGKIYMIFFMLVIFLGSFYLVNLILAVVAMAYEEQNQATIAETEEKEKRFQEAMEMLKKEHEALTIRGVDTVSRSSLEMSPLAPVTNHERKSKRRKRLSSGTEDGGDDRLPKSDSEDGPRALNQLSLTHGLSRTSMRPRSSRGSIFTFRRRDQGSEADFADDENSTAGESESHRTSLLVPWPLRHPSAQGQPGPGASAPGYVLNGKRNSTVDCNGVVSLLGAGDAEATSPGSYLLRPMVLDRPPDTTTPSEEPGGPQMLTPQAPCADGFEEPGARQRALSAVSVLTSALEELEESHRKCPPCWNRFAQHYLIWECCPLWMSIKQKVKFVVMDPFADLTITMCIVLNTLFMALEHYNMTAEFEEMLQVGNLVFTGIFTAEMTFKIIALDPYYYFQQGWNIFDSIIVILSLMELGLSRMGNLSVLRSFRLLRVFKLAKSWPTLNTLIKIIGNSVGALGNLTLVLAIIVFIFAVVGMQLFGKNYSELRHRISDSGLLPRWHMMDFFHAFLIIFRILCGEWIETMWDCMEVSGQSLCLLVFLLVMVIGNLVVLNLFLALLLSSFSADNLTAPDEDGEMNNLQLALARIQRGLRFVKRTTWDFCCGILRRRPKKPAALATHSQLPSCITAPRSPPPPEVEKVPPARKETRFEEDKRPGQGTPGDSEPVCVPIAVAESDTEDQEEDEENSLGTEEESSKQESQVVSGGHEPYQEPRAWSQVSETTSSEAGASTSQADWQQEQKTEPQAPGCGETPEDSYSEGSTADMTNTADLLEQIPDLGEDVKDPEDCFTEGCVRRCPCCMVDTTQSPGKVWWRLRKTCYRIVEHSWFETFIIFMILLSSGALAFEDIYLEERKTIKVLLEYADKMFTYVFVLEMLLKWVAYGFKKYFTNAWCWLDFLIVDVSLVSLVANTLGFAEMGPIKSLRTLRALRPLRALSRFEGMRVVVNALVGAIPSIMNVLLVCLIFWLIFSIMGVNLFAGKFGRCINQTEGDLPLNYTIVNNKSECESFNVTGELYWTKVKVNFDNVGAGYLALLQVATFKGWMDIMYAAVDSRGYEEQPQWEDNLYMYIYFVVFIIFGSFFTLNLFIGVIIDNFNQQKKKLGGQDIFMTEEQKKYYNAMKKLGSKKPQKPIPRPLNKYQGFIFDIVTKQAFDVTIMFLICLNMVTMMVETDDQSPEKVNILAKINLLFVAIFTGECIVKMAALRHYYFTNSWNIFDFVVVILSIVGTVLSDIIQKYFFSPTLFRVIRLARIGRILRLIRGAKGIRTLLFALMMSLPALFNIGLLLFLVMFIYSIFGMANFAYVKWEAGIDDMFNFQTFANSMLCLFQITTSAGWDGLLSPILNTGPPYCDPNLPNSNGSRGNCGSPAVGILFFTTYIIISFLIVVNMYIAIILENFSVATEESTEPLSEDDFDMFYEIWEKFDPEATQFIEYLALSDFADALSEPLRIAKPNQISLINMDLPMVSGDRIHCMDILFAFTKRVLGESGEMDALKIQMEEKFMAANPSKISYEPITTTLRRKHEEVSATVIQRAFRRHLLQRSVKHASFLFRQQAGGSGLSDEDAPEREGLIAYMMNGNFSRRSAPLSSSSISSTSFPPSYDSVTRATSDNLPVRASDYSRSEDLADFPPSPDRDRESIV
Experimental: Heart sections ([…] thickness) were prepared using a −20° C. cryostat and thaw-mounted onto gelatin-coated slides. The slides were stored at −20° C. until the day of the experiment. […] Individual images of sections were cropped using ImageJ with no additional adjustment to color levels/thresholds. The experimental setup was designed such that both baseline and competition experiments contained the same amount of radioactivity and were imaged on the same screen. […] For variation of washing times, the incubation was held constant at 15 min.

SCN5A [2] = molecular target: T2, SCN5A (Homo sapiens, UniProt Q14524); test: Ex vivo autoradiography of human heart tissue, self-displacement dose-response; assay type: binding; settings: self-inhibition, modified Cheng-Prusoff equation
T2 construct: Non-failing human donor heart samples were compared to explanted tissue from patients who had suffered from heart failure; from tissue; host or cells: human left ventricular myocardium (non-failing donor hearts and explanted DCM-failing hearts)
T2 sequence (Q14524 whole entry): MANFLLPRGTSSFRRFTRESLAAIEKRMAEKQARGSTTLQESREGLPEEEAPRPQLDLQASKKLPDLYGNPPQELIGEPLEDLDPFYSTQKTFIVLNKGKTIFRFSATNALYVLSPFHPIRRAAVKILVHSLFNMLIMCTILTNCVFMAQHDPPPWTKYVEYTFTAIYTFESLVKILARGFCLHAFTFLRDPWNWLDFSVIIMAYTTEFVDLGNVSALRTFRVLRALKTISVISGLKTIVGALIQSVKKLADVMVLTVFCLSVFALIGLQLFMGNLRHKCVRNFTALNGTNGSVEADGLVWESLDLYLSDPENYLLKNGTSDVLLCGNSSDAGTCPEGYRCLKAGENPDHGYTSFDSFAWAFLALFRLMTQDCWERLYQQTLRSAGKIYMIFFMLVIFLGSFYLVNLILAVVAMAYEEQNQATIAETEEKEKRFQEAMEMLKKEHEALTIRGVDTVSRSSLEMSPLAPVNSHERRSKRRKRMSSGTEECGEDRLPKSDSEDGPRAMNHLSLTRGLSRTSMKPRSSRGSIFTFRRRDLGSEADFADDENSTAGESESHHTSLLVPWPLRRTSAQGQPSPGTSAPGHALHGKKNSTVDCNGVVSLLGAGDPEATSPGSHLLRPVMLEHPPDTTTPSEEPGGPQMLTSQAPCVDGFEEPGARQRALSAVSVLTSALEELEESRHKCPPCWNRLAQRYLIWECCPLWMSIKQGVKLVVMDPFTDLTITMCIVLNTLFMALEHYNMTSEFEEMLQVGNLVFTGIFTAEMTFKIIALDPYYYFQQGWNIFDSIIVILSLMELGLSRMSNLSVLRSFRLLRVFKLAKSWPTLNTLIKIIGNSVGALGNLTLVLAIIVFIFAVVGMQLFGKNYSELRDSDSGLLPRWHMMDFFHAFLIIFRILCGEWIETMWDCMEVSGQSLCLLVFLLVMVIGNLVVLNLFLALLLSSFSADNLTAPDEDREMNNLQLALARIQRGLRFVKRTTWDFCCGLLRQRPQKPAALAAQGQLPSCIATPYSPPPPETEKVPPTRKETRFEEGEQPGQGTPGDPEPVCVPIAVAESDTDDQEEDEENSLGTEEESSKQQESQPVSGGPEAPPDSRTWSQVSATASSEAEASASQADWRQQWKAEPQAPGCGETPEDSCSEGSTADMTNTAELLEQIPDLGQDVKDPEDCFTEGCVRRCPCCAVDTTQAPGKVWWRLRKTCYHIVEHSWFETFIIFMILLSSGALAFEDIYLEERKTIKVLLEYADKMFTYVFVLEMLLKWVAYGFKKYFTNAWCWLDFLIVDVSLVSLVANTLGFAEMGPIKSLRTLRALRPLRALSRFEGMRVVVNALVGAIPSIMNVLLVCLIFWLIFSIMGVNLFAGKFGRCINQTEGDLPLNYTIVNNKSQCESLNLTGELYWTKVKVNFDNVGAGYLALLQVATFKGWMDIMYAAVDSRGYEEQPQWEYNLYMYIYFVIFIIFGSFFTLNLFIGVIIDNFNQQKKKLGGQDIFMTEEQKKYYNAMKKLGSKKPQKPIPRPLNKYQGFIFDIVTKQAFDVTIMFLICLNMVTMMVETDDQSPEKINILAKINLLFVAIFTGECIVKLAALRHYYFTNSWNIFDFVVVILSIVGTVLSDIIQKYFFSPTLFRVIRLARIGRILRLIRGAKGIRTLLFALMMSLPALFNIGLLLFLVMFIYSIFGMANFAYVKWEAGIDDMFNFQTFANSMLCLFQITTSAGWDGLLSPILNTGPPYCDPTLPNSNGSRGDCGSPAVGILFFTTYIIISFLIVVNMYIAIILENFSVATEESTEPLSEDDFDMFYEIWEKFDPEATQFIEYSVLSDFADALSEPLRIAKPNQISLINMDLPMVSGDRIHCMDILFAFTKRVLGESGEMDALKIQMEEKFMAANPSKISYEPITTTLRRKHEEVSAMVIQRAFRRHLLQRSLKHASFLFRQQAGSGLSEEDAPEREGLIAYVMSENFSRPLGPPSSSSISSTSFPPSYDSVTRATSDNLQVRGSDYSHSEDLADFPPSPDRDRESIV
Excerpt: Non-failing human donor heart samples were compared to explanted tissue from patients who had suffered from heart failure due to idiopathic dilated cardiomyopathy (DCM) and required cardiac transplantation, as shown in FIGS. 4A-4B (see e.g., Japp et al, J. Am. Coll. Cardiol. 2016, 67:2996-3010).
To exclude that the reduced signal was the result of a decrease in affinity in diseased vs. healthy tissue and confirm a deficit in channel density, dose-response experiments were performing using N-(2,6-dimethylphenyl)-2-(ethyl(2-fluoroethyl)amino)acetamide as the competition ligand. Using the modified Cheng-Prusoff equation for self-inhibition, these measurements allowed for the determination of Kd-values for the groups NF1 and F1, as shown in FIG. 4B. […] A ˜30% reduction in Bmax was observed.

rat myocardium = test: Rodent PET-CT imaging of the myocardium, single bolus and bolus+infusion, with lidocaine block; assay type: in vivo
Experimental: Male Sprague-Dawley rats (400-500 g) were anesthetized with inhalational isoflurane (Forane) (3% in a carrier of 1.5-2 L/min medical oxygen for induction and 2% isoflurane for maintenance of anesthesia during the scan). Lateral tail vein catheters were placed for intravenous (i.v.) injection of the compounds. Two rats were arranged head-to-head in a Triumph Trimodality PET/CT/SPECT scanner (Gamma Medica, Northridge, Calif.) or a MicroPET P4 scanner. […] Dynamic PET acquisition was performed over 45 min and was followed by computed tomography (CT) for anatomic coregistration and attenuation correction. […] Reconstructed images were exported from the scanner in DICOM format along with an anatomic CT for rodent studies. These files were imported to AMIDE and Gaussian filtered (kernel size=15, fwhm=1.5 mm). Regions of interest (ROIs) were drawn manually at the lung and myocardium guided by high-resolution CT structural images and summed PET data. Time-activity-curves (TACs) were exported in terms of decay corrected activity per unit volume at specified time points with gradually increasing intervals.

[3] = system: myocardium of non-human primates; test: PET/MR imaging of non-human primates; assay type: in vivo
Experimental: Two female baboons (Papio anubis, weight=15.2±1.6 kg) were deprived of food for 12 h prior to the study. Anesthesia was induced with intramuscular ketamine (10 mg/kg) and xylazine (0.5 mg/kg). After endotracheal intubation, the baboons were catheterized antecubitally for injection of the radiolabeled compound. Anesthesia was maintained using isoflurane (1-1.5%, 100% oxygen, 1 L/min) during the scan, and ketamine/xylazine effects were reversed with yobine (0.11 mg/kg, i.m.) before image acquisition. Vital signs, including heart rate, respiration rate, blood pressure, O2 saturation, and end tidal CO2, were monitored continuously and recorded every 15 min. Simultaneous PET/MR data were acquired using a Siemens Biograph mMR system (Siemens Healthcare, Erlangen, Germany). Each animal underwent a baseline and a blocking scan on two separate days. MR body imaging was performed with real-time respiratory bellow gating and using the body matrix coil and the built-in spine coil as the receiving coil elements. High-resolution anatomical T1-weighted, dual echo, gradient echo sequence was acquired with the following parameters: TR=194 ms, TE1/TE2=1.23/2.46 ms, matrix size 256×256, FOV=35 cm, phase FOV 65.6% (in-plane resolution=1.4 mm), 4 mm slice thickness, and 80 slices. For the purpose of MR-based attenuation correction of the PET data, a T1-weighted, 2-point Dixon 3D volumetric interpolated breath-hold examination (VIBE) scan was obtained. PET data were obtained using a single-bed position with an axial field of view of 25.8 cm, and a transverse field of view of 59.4 cm. PET data were acquired dynamically for 60 min (bolus injection of N-(2,6-dimethylphenyl)-2-(ethyl(2-(fluoro-^18F)ethyl)amino)acetamide) or 90 min (bolus/infusion of N-(2,6-dimethylphenyl)-2-(ethyl(2-(fluoro-^18F)ethyl)amino)acetamide) after intravenous administration of N-(2,6-dimethylphenyl)-2-(ethyl(2-(fluoro-^18F)ethyl)amino)acetamide (5.0±0.2 mCi bolus or 4 mCi bolus+4 mCi infusion). […] Standard uptake unit (SUV) was calculated as the mean radioactivity per injected dose per weight.

With `CCN(CCF)CC(=O)Nc1c(C)cccc1C` [Example 1, N-(2,6-dimethylphenyl)-2-(ethyl(2-fluoroethyl)amino)acetamide] the “level of non-specific / non-displaceable binding (BNS) as competition ligand” value (SCN5A [1]; competition ligands at the same concentration against the 18F tracer) was “same level of BNS as lidocaine; also recorded: same level of non-displaceable binding” and the “Kd-values, non-failing (NF1) vs failing (F1) left ventricular tissue” value (SCN5A [2]) was “no difference in Kd-values between the groups”.

`CCN(CC[18F])CC(=O)Nc1c(C)cccc1C` [Example 2, N-(2,6-dimethylphenyl)-2-(ethyl(2-(fluoro-^18F)ethyl)amino)acetamide] was tested, and the “reduction of total binding on wash-out” value (SCN5A [1]; after 1 min wash, incubation 15 min) was 50%, the “incubation time after which specific binding (BS) reached a constant level” value (SCN5A [1]; incubation times 1, 5, 10, 20 min, wash 1 min) was 5 min and the “specific binding (BS) as share of overall binding” value (SCN5A [1]; rat myocardial slices 20 μm, self-competition with excess (500 μM) unlabeled compound) was about 70%. The “residence time (t1/2^−1) of the radiotracer” value (rat myocardium; from time course of signal reduction after lidocaine, estimation) was about 1 min⁻¹, the “time to stable baseline signal” value (rat myocardium; i.v. bolus ~150 μCi followed by constant infusion ~300 μCi over 60 min) was 20 min and the “time for tracer bolus to reach peak signal” value (rat myocardium; single bolus) was 3 min. The “time after bolus injection at which blood pool had cleared and myocardial signal was revealed” value (rat myocardium; single i.v. bolus) was 3 min, the myocardial baseline signal (rat myocardium; single i.v. bolus, healthy rats) was “up to 2 % ID/cc” and the estimated residence time ([3]; bolus 4 mCi + infusion 4 mCi over 90 min, lidocaine challenge) was 5 min⁻¹. The “time after which blood background cleared” value ([3]; single bolus, healthy baboon) was 2 to 3 min.

With `CCN(CC)CC(=O)Nc1c(C)cccc1C` [lidocaine, reference compound] the “time to plateau of full block after the pharmacological dose” value (rat myocardium; 5 mg/kg lidocaine) was 3 minutes, the “reduction of tracer signal by in-scan lidocaine challenge” value (rat myocardium; 5 mg/kg lidocaine i.v., bolus+infusion paradigm) was “complete reduction of the radiolabeled compound signal to background level” and the “lidocaine dose from which reduction of myocardial tracer signal was observed” value (rat myocardium; i.v. 5 min before tracer, compared to vehicle) was 0.1 mg/kg. The “in vivo IC50 at the myocardium” value (rat myocardium; in-scan lidocaine challenges 0.5-5 mg/kg i.v., bolus+infusion, estimation) was about 0.7 mg/kg and the “effect of lidocaine pre-block on myocardial tracer signal” value ([3]; 5 mg/kg i.v. lidocaine 5 min prior to tracer) was “blocked the myocardial signal; also recorded: suppressed the myocardial signal to background levels”.
